# Test results published in patent publication US20260335332A1, “STABLE MONOHYDRATE FORM OF AVIBACTAM SODIUM SALT AND PREPARATION METHOD THEREFOR” (KYONGBO PHARM. CO., LTD., priority 2022, published 2026).
# Where two headings read alike, the source gives them in different places.
# How the values were obtained:
# [1] = described in WO2011/042560 A1; cited from earlier work
# TGA pattern measurement = type: physicochemical; settings: 3 to 5 mg, 30 to 500° C. at 10 K/min; theoretical water content of the monohydrate 5.90%
# Protocol: The TGA pattern was measured while heating 3 to 5 mg of the novel monohydrate form “a” of avibactam sodium salt prepared in Example 1 from 30 to 500° C. at a rate of 10 K/min. […] In addition, decomposition exotherm accompanied by weight loss at 200 to 220° C. was confirmed and the results are shown in FIG. 5.
# [2] = described in WO2011/042560 A1; cited from earlier work; remark: listed apart in the source
# [3] = Comparative accelerated stability test on purity/appearance changes (40° C., 75% relative humidity), HPLC; type: physicochemical; settings: 6 weeks
# Protocol: The novel monohydrate form “a” of avibactam sodium salt prepared in Example 1, the monohydrate form “A” and the anhydrous form “B” were each packaged in glass vials and stored at 40° C. and 75% relative humidity for 6 weeks and the purity changes thereof were measured by HPLC at weekly intervals.
# DSC pattern measurement = type: physicochemical; settings: 3 to 5 mg, 25 to 500° C. at 10 K/min
# Protocol: The DSC pattern was measured while heating 3 to 5 mg of the novel monohydrate form “a” of avibactam sodium salt prepared in Example 1 from 25 to 500° C. at a rate of 10 K/min. As a result, the exothermic decomposition peak was confirmed at 227.3° C. […] It was confirmed therefrom that it had different physicochemical properties from the monohydrate form “A”, and the results are shown in FIG. 6.
# [4] = Accelerated stability test on moisture content changes (40° C., 75% relative humidity), Karl-Fischer; type: physicochemical; settings: glass vial, 6 weeks, Karl-Fischer moisture meter
# Protocol: The novel monohydrate form “a” of avibactam sodium salt prepared in Example 1 was packaged in a glass vial and stored at 40° C. and 75% relative humidity for 6 weeks and the change in moisture content thereof was measured by a Karl-Fischer moisture meter at weekly intervals for about 6 weeks.
smiles,measurement,setting,value
"NC(=O)[C@@H]1CC[C@@H]2CN1C(=O)N2OS(=O)(=O)O [form “E”, (1R,2S,5R)-7-oxo-6-sulfooxy-1,6-diazabicyclo[3.2.1]octane-2-carboxamide sodium]",stability during long storage and at higher temperature,[1],tends to lose water and hydrolyze during long storage and at higher temperature
"NC(=O)[C@@H]1CC[C@@H]2CN1C(=O)N2OS(=O)(=O)O [form “a”, (1R,2S,5R)-7-oxo-6-sulfooxy-1,6-diazabicyclo[3.2.1]octane-2-carboxamide sodium]",weight loss at 100 to 140° C. (TGA),TGA pattern measurement,5.57%
same,exothermic decomposition peak (DSC),[2],238.9 °C
same,pharmaceutical stability compared with anhydrous form “B”,"[3]; accelerated stability, vs anhydrous form “B”",pharmaceutically more stable than the form “B”
same,stability (purity changes) compared with monohydrate form “A”,"[3]; glass vials, HPLC at weekly intervals, vs monohydrate form “A”",a more stable form than the monohydrate form “A”
same,exothermic decomposition peak (DSC),DSC pattern measurement,227.3 °C
same,maintenance of monohydrate form (change in moisture content),[4],maintained the monohydrate form thereof
